Among the data in patent US20240376094A2, “SELECTIVE BCL-XL PROTAC COMPOUNDS AND METHODS OF USE” (Les Laboratoires Servier, priority 2021, published 2024) are GI50, DC50 and IC50 values, retold here.

For orientation: GI50 means the concentration at which growth is held to half of that of the control. For orientation: pIC50 means the IC50 on a negative log10 scale, so that one unit is a factor of ten. The low end stands for a high IC50, the high end for a low IC50.

Common to all, as to format: cell-based
The test system of test [1] is EBC-1 lung cancer cell line. As to the kind of experiment: EBC-1 cell proliferation, CellTiter-Glo assay. To be noted: Homo sapiens, 120 h; Ebc-1 cell viability, CTG assay, 5 days of treatment; read-out: CTG 5 day Ebc1 GI50. An outline of the steps: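 CellTiter-Glo read-out after 5-day compound treatment, normalised to untreated cells, with GI50 derived by four-parameter logistic regression. Ten concentrations spanning 0.508 nM–10 μM were added to 1000 EBC-1 cells per well the day after seeding. Assays required at least one cell doubling versus Day 0.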
(In general: In ATP-based viability assays light output follows the ATP content of the culture.)

Test [2] deals with T1, Bcl-xL (Homo sapiens, UniProt Q07817).
T1 construct: Measured levels of Bcl-xL protein of HCT116 cells treated with the tested compounds; host or cells: HCT116
T1 sequence (Q07817 whole entry): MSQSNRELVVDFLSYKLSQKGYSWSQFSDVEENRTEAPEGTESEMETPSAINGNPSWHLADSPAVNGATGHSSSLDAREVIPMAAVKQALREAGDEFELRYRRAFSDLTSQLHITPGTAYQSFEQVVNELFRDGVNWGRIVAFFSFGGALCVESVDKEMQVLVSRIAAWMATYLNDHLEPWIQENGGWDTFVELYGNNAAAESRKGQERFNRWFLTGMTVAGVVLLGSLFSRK
The test is described as follows: HCT116 Bcl-xL degradation, capillary-based immunoassay (WES). As to conditions: HCT116, 24 h, 9-point serial dilution. An outline of the steps:
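Bcl-xL protein level by capillary WES immunoassay in HCT116 lysates, as % of untreated after cofilin normalization. Compound exposure was 24 h at 10 and 100 nM and/or a 9-point series, in quadruplicate. Four-parameter fitting gave the DC50.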

Test [3] deals with MOLT-4 cells. The test is described as follows: MOLT-4 cell viability, CTG assay. As to conditions: Homo sapiens, MOLT-4, 48 h. In outline: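 Viability read as total ATP luminescence (CTG) after 48 h compound treatment, 11 points at 5-fold spacing in triplicate, cells in RPMI 1640/10% FBS. IC50 is the concentration halving signal relative to control, four-parameter fit, averaged over at least 2 experiments.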

Test [4] addresses T2, HiBiT-tagged BCL-xL (Homo sapiens, UniProt Q07817).
T2 construct: expressed in transfected cells; host or cells: NCI-H1650 (ATCC No. CRL-5883), engineered HiBiT cell line
As to the kind of experiment: NCI-H1650 BCL-xL protein levels, Nano-Glo HiBiT Lytic Detection. As to conditions: NCI-H1650 expressing HiBiT-tagged BCL-xL, overnight incubation, read-out: Bcl-xl HIBIT NCIH1650 DC50. An outline of the steps:
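HiBiT luminescence after cell lysis with LgBiT/furimazine reagent reported BCL-xL levels, expressed relative to untreated wells and fitted with a four-parameter logistic equation. Engineered NCI-H1650 cells were exposed overnight at 37° C to compound at final 0.508 nM-10 μM (10 points, triplicate plates).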
(HiBiT is a short tag that completes a luciferase, so light tracks the accessible tagged protein.)

pIC50: −log10 of the molar value.

T2 sequence (Q07817 whole entry): as above

Turning to `Cc1ncsc1-c1ccc([C@H](C)NC(=O)[C@@H]2C[C@@H](O)CN2C(=O)[C@@H](NC(=O)CCCCCCCCCNC(=O)c2nc(N3CCCc4c3nnc(Nc3nc5ccccc5s3)c4C)ccc2-c2cnn(CC34CC5(C)CC(C)(C3)CC(OCCN3CCCC3)(C5)C4)c2C)C(C)(C)C)cc1` [Example 130, 6-[3-(1,3-benzothiazol-2-ylamino)-4-methyl-6,7-dihydro-5H-pyrido[2,3-c]pyridazin-8-yl]-3-[1-[[3,5-dimethyl-7-(2-pyrrolidin-1-ylethoxy)-1-adamantyl]methyl]-5-methyl-pyrazol-4-yl]-N-[10-[[(1S)-1-[(2S,4R)-4-hydroxy-2-[[(1S)-1-[4-(4-methylthiazol-5-yl)phenyl]ethyl]carbamoyl]pyrrolidine-1-carbonyl]-2,2-dimethyl-propyl]amino]-10-oxo-decyl]pyridine-2-carboxamide], the 50% growth inhibitory concentration (GI50) in test [1] was determined as 2 nM. Moreover, the DC50 in test [2] came to 0.857 nM; in test [4] it was 1 nM. Further, in test [3], the pIC50 was 8.39.
For `Cc1ncsc1-c1ccc([C@H](C)NC(=O)[C@@H]2C[C@@H](O)CN2C(=O)[C@@H](NC(=O)CCOCCCCCCN(C)CCOC23CC4(C)CC(C)(CC(Cn5ncc(-c6ccc(N7CCCc8c7nnc(Nc7nc9ccccc9s7)c8C)nc6C(=O)O)c5C)(C4)C2)C3)C(C)(C)C)cc1` [Example 108, 6-[3-(1,3-benzothiazol-2-ylamino)-4-methyl-6,7-dihydro-5H-pyrido[2,3-c]pyridazin-8-yl]-3-[1-[[3-[2-[6-[3-[[(1S)-1-[(2S,4R)-4-hydroxy-2-[[(1S)-1-[4-(4-methylthiazol-5-yl)phenyl]ethyl]carbamoyl]pyrrolidine-1-carbonyl]-2,2-dimethyl-propyl]amino]-3-oxo-propoxy]hexyl-methyl-amino]ethoxy]-5,7-dimethyl-1-adamantyl]methyl]-5-methyl-pyrazol-4-yl]pyridine-2-carboxylic acid] the same measures were 81 nM, over 316 nM, over 1670 nM and 8.01.
`Cc1ncsc1-c1ccc([C@H](C)NC(=O)[C@@H]2C[C@@H](O)CN2C(=O)[C@@H](NC(=O)COCCCCCCCCCCCN(C)CCOC23CC4(C)CC(C)(CC(Cn5ncc(-c6ccc(N7CCCc8c7nnc(Nc7nc9ccccc9s7)c8C)nc6C(=O)O)c5C)(C4)C2)C3)C(C)(C)C)cc1` [Example 110, 6-[3-(1,3-benzothiazol-2-ylamino)-4-methyl-6,7-dihydro-5H-pyrido[2,3-c]pyridazin-8-yl]-3-[1-[[3-[2-[11-[2-[[(1S)-1-[(2S,4R)-4-hydroxy-2-[[(1S)-1-[4-(4-methylthiazol-5-yl)phenyl]ethyl]carbamoyl]pyrrolidine-1-carbonyl]-2,2-dimethyl-propyl]amino]-2-oxo-ethoxy]undecyl-methyl-amino]ethoxy]-5,7-dimethyl-1-adamantyl]methyl]-5-methyl-pyrazol-4-yl]pyridine-2-carboxylic acid]: in test [1], the GI50 turned out to be 379 nM. For the same compound, the DC50 in test [2] was 11.4 nM; in test [4], 2 nM. The compound also gave a pIC50 in test [3] of 7.62.
Consider `Cc1cc(N(CCCCN(C)C(=O)CCCCCCCCCCCC(=O)N[C@H](C(=O)N2C[C@H](O)C[C@H]2C(=O)N[C@@H](C)c2ccc(-c3scnc3C)cc2)C(C)(C)C)c2ccc(-c3cnn(C[C@]45C[C@]6(C)C[C@](C)(C4)C[C@@](OCCN(C)C)(C6)C5)c3C)c(C(=O)O)n2)nnc1Nc1nc2ccccc2s1` [Example 121, 6-[[6-(1,3-benzothiazol-2-ylamino)-5-methyl-pyridazin-3-yl]-[4-[[13-[[(1S)-1-[(2S,4R)-4-hydroxy-2-[[(1S)-1-[4-(4-methylthiazol-5-yl)phenyl]ethyl]carbamoyl]pyrrolidine-1-carbonyl]-2,2-dimethyl-propyl]amino]-13-oxo-tridecanoyl]-methyl-amino]butyl]amino]-3-[1-[[3-[2-(dimethylamino)ethoxy]-5,7-dimethyl-1-adamantyl]methyl]-5-methyl-pyrazol-4-yl]pyridine-2-carboxylic acid], for which, in test [1], the GI50 came to 190 nM. Moreover, the DC50 in test [2] was determined as 2.57 nM; in test [4], 1 nM. Moreover, the pIC50 in test [3] was 8.00.
In the case of `Cc1ncsc1-c1ccc([C@H](C)NC(=O)[C@@H]2C[C@@H](O)CN2C(=O)[C@@H](NC(=O)CCCCCCCCCCNC(=O)c2nc(N3CCCc4c3nnc(Nc3nc5ccccc5s3)c4C)ccc2-c2cnn(CC34CC5(C)CC(C)(C3)CC(OCCN3CCCC3)(C5)C4)c2C)C(C)(C)C)cc1` [Example 125, 6-[3-(1,3-benzothiazol-2-ylamino)-4-methyl-6,7-dihydro-5H-pyrido[2,3-c]pyridazin-8-yl]-3-[1-[[3,5-dimethyl-7-(2-pyrrolidin-1-ylethoxy)-1-adamantyl]methyl]-5-methyl-pyrazol-4-yl]-N-[11-[[(1S)-1-[(2S,4R)-4-hydroxy-2-[[(1S)-1-[4-(4-methylthiazol-5-yl)phenyl]ethyl]carbamoyl]pyrrolidine-1-carbonyl]-2,2-dimethyl-propyl]amino]-11-oxo-undecyl]pyridine-2-carboxamide], in test [1], the GI50 was 81 nM. For the same compound, the results for the DC50 in test [2] and in test [4] were 0.487 nM and 1 nM, respectively. The compound further had a pIC50 in test [3] of 8.03.
Regarding `Cc1ncsc1-c1ccc([C@H](C)NC(=O)[C@@H]2C[C@@H](O)CN2C(=O)[C@@H](NC(=O)C2CCN(C(=O)CCCCCCCCCN(C)CCOC34CC5(C)CC(C)(CC(Cn6ncc(-c7ccc(N8CCCc9c8nnc(Nc8nc%10ccccc%10s8)c9C)nc7C(=O)O)c6C)(C5)C3)C4)CC2)C(C)(C)C)cc1` [Example 84, 6-[3-(1,3-benzothiazol-2-ylamino)-4-methyl-6,7-dihydro-5H-pyrido[2,3-c]pyridazin-8-yl]-3-[1-[[3-[2-[[10-[4-[[(1S)-1-[(2S,4R)-4-hydroxy-2-[[(1S)-1-[4-(4-methylthiazol-5-yl)phenyl]ethyl]carbamoyl]pyrrolidine-1-carbonyl]-2,2-dimethyl-propyl]carbamoyl]-1-piperidyl]-10-oxo-decyl]-methyl-amino]ethoxy]-5,7-dimethyl-1-adamantyl]methyl]-5-methyl-pyrazol-4-yl]pyridine-2-carboxylic acid], in test [1], the GI50 worked out at 171 nM. For the same compound, the results for the DC50 in test [2] and in test [4] were over 316 nM and over 1670 nM, respectively. The compound also showed a negative-log IC50 (pIC50) in test [3] of 7.74.
As for `Cc1ncsc1-c1ccc([C@H](C)NC(=O)[C@@H]2C[C@@H](O)CN2C(=O)[C@@H](NC(=O)CCOCCN(C)CCOC23CC4(C)CC(C)(CC(Cn5ncc(-c6ccc(N7CCCc8c7nnc(Nc7nc9ccccc9s7)c8C)nc6C(=O)O)c5C)(C4)C2)C3)C(C)(C)C)cc1` [Example 103, 6-[3-(1,3-benzothiazol-2-ylamino)-4-methyl-6,7-dihydro-5H-pyrido[2,3-c]pyridazin-8-yl]-3-[1-[[3-[2-[2-[3-[[(1S)-1-[(2S,4R)-4-hydroxy-2-[[(1S)-1-[4-(4-methylthiazol-5-yl)phenyl]ethyl]carbamoyl]pyrrolidine-1-carbonyl]-2,2-dimethyl-propyl]amino]-3-oxo-propoxy]ethyl-methyl-amino]ethoxy]-5,7-dimethyl-1-adamantyl]methyl]-5-methyl-pyrazol-4-yl]pyridine-2-carboxylic acid], the GI50 in test [1] stood at 378 nM. Moreover, the DC50 in test [2] was 13.6 nM; in test [4], over 1670 nM. The compound further had a pIC50 in test [3] of 7.20.
In the case of `Cc1ncsc1-c1ccc([C@H](C)NC(=O)[C@@H]2C[C@@H](O)CN2C(=O)[C@@H](NC(=O)C2CCN(C(=O)CCCCCCCCCCN(C)CCOC34CC5(C)CC(C)(CC(Cn6ncc(-c7ccc(N8CCCc9c8nnc(Nc8nc%10ccccc%10s8)c9C)nc7C(=O)O)c6C)(C5)C3)C4)CC2)C(C)(C)C)cc1` [Example 82, 6-[3-(1,3-benzothiazol-2-ylamino)-4-methyl-6,7-dihydro-5H-pyrido[2,3-c]pyridazin-8-yl]-3-[1-[[3-[2-[[11-[4-[[(1S)-1-[(2S,4R)-4-hydroxy-2-[[(1S)-1-[4-(4-methylthiazol-5-yl)phenyl]ethyl]carbamoyl]pyrrolidine-1-carbonyl]-2,2-dimethyl-propyl]carbamoyl]-1-piperidyl]-11-oxo-undecyl]-methyl-amino]ethoxy]-5,7-dimethyl-1-adamantyl]methyl]-5-methyl-pyrazol-4-yl]pyridine-2-carboxylic acid], in test [1], the GI50 amounted to 157 nM. The DC50 in test [2] was over 316 nM; in test [4] it was over 1670 nM. The compound further gave a pIC50 in test [3] of 8.00.
